Data from PubChem BioAssay AID179 (DTP/NCI, 2004).
Where “and” joins values, the source holds several entries; their conditions need not be identical. Identical values can stand only once. Calls of active or inactive are those of the source.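 The calls were made as follows: active = compounds giving half or more protection of infected cells from virus-caused growth loss, again on retest; inactive = the rest.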 Where a SMILES comes first, the peptide text is derived from it.

Tested on: CEM cells HIV-1 protection, formazan growth assay
Assay: NCI AIDS Antiviral Assay
Conditions: for IC50: measured here: growth of uninfected CEM cells
Summary of the method: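 Human CEM cells, uninfected and HIV-1-infected, exposed to five drug concentrations; growth measured by soluble formazan assay and scored as percent protection from infection, with protecting compounds retested.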

Row | SMILES | EC50 | IC50 | outcome
1 | CC(=O)O[C@H]1CC[C@@]2(C)C(=CC[C@@H]3C2CC[C@@]2(C)C3CC[C@@H]2c2ncc(-c3ccccc3)s2)C1 (stereo partly specified) | > 52.5 µM | > 52.5 µM | –
2 | CC(=O)c1cc(-c2ccccn2)c(=O)n2ccccc12 | > 200 µM | 112 µM | –
3 | COc1ccc(/C(C#N)=C/c2ccccc2)cc1 | > 200 µM | 10.7 µM | –
4 | N.N.O=C([O-])P(=O)([O-])[O-].[Na+].[Pt+4] | > 4170 µM | 155 µM | –
5 | Cc1ccc(/C=N/Nc2cc(C)c3cccc(C)c3n2)s1 | > 200 µM | 5.75 µM | –
6 | CC(C)(C)[Si](C)(C)OCC1OC(n2cnc3c(=O)[nH]c(NCc4cccc5ccccc45)nc32)C(O[Si](C)(C)C(C)(C)C)C1O[Si](C)(C)C(C)(C)C (stereo unspecified) | > 200 µM | > 200 µM | –
7 | Nc1nc2c(c(=O)[nH]1)Cc1nc(N)[nH]c(=O)c1C2 | > 24.5 µM | > 24.5 µM | –
8 | COc1ccc2[nH]c3c([N+](=O)[O-])ccc(Cl)c3c(=O)c2c1 | – | – | inactive
9 | COc1ccc(N=N/C(=N/NC(=O)c2ccccc2)c2ccc(N(CCC#N)CCC#N)cc2C)cc1 | > 200 µM | 11.5 µM | –
10 | COc1ccc(CN=C(N)N)c2ccccc12 | > 200 µM | 5.13 µM | –
11 | CN1CCc2ccccc2/C(=C(/O)c2ccccc2)C1=O | – | – | inactive
12 | CC(=O)Nc1nc(N)nc(NC(C)=O)c1N=O | > 200 µM | 30.9 µM | –
13 | C[N+]1(C)CCCC1C(=O)[O-] (stereo unspecified) | > 1740 µM | > 1740 µM | –
14 | COc1cc(OC)c(Oc2cccc(OC)c2OC)c(OC)c1 | > 16.2 µM | > 16.2 µM | –
15 | NC(=O)NNC(=O)NC12CC3CC(CC(C3)C1)C2 | – | – | inactive
16 | O=C(O)CCc1c2ccc(=O)c(O)c-2oc2c(O)c(O)ccc12 | 85.1 µM | 102 µM | –
17 | Cc1ccc(Nc2nc3ccccc3nc2NS(=O)(=O)c2ccc(N)cc2)cc1 | > 200 µM | 43.7 µM | –
18 | Oc1cc2cc(-c3ccccc3)[nH]c2c2ccccc12 | > 200 µM | 31.6 µM | –
19 | CN1CC2=C(OC(N)=C(C#N)C2c2cccs2)/C(=C/c2cccs2)C1 (stereo unspecified) | > 200 µM | 8.13 µM | –
20 | O=C(O)CCSC(=S)Nc1ccccc1 | – | – | inactive
21 | O=S(=O)([O-])[O-].O=c1[nH]cnc2nc[n-]c12.[OH3+].[OH3+].[Zn+2] | > 21.4 µM | > 21.4 µM | –
22 | CCC(C=O)P1(=O)OC(C)(C)CN1C(C)(C)C (stereo unspecified) | > 200 µM | 64.6 µM | –

Row | SMILES | EC50 | IC50 | outcome
23 | CN1C(=O)N(C)C(=O)C(Nc2ccc([N+](=O)[O-])cc2)(SCCO)C1=O | 97.7 µM | 363 µM | –
24 | O=c1c2ccccc2nc(-c2ccccc2)n1-c1nccs1 | > 200 µM | 22.4 µM | –
25 | COc1ccc(OC)c2c(C(=O)O)c(Cc3ccccc3)ccc12 | – | – | inactive
26 | CC1=C(C(=O)Nc2cc(=O)n(C)c(=O)n2C)C(c2ccco2)C(C(=O)Nc2cc(=O)n(C)c(=O)n2C)=C(C)N1 | > 93.3 µM | > 93.3 µM | –
27 | CCOc1ccc(NC(=S)/N=C/C(C(=O)Nc2ccccc2C)=C(\C)O)cc1 | > 200 µM | > 200 µM | –
28 | COc1cccc2sc(-n3c(C)nc4ccccc4c3=O)nc12 | > 200 µM | > 200 µM | –
29 | COc1cc([C@H]2Oc3cc([C@H]4Oc5cc(O)cc(O)c5C(=O)[C@@H]4O)ccc3O[C@@H]2CO)ccc1O | > 200 µM | 66.1 µM | –
30 | CC(C(=O)O)n1c(=O)ssc1=O (stereo unspecified) | 63.1 µM | 123 µM | –
31 | CC1CC[Si](C)(C)CC12C(=O)NC(=O)NC2=O (stereo unspecified) | > 200 µM | > 200 µM | –
32 | Cc1ccc(N=NC(=O)NNc2ccc(C)cc2Br)c(Br)c1 | > 200 µM | 35.5 µM | –
33 | CC(=O)Oc1ccc2c(C)cc(=O)oc2c1 | > 200 µM | 170 µM | –
34 | C[N+](C)(Cc1ccco1)c1ccccc1 | > 3.16 µM | > 3.16 µM | –
35 | COc1ccc2c(c1)C(=O)Cc1ccccc1CC2 | > 39.8 µM | > 39.8 µM | –
36 | COc1cccc2c1C(=O)c1c(O)c3c(c(O)c1C2=O)C[C@@](O)(C(=O)CO)C[C@@H]3OC1CC(N)C(O)C(C)O1 (stereo partly specified) | > 2.51 µM | – | –
37 | Clc1ccc(Cl)c2[s+]snc12 | > 14.5 µM | > 14.5 µM | –
38 | C/C=C/COc1cc(NC(=S)c2ccoc2C)ccc1OC | 0.813 µM | 1.62 µM | –
39 | C=C1CN(S(=O)(=O)c2ccc([N+](=O)[O-])cc2)CC(=C)CN(S(=O)(=O)c2ccc([N+](=O)[O-])cc2)C1 | > 200 µM | > 200 µM | –
40 | C[C@]12CCc3nn(-c4ccccc4)nc3C1CC[C@@H]1C2CC[C@]2(C)NC(=O)CCC12 (stereo partly specified) | > 23.4 µM | > 23.4 µM | –
41 | CCOP(=O)(Nc1cccc(Cl)c1)OCC | > 955 µM | – | –
42 | COc1cc(OC)c2c(=O)c3cccc(C)c3n(C)c2c1 | > 200 µM | 95.5 µM | –
43 | c1ccc(CC2(c3cc4ccccc4[nH]3)OCCO2)nc1 | > 200 µM | 174 µM | –
44 | CN(/N=N/N(C)c1ccccc1)c1ccccc1 | > 200 µM | > 200 µM | –

Row | SMILES | EC50 | IC50 | outcome
45 | O=C1CCCCCCCCCCCC(=O)OCCO1 | > 132 µM | > 132 µM | –
46 | Cc1cc(S(=O)(=O)Nc2nnc3ccccn23)c(S)cc1Cl | 102 µM | 380 µM | –
47 | CC1=N/C(=C\c2cccc([N+](=O)[O-])c2)C(=O)O1 | > 562 µM | > 562 µM | –
48 | CC(C)(C)C(=O)Nc1ccccc1C(=O)C12CCC3(CCOCc4ccccc4)C=CCN(C(=O)O1)C32 (stereo unspecified) | 15.5 µM | 42.7 µM | –
49 | CN(C)c1ccc(/C=C2\CCc3ccccc3C2=O)cc1 | > 9.77 µM | 5.5 µM | –
50 | CCn1c(O)c(C=Nc2ccccc2)s/c1=N/Nc1nc(C)cs1 | > 200 µM | 174 µM | –
51 | CC1=C(C)C(=O)c2c(cc3c4ccccc4ccn23)C1=O | – | – | inactive
52 | CC(=O)OCC1CC(n2cc(C)c(=O)[nH]c2=O)=NO1 (stereo unspecified) | > 200 µM | > 200 µM | –
53 | Cc1cc(C)nc(NS(=O)(=O)c2ccc(NC(=O)c3cccc4c(NNc5ccc(S(=O)(=O)N=C(N)N)cc5)c5ccccc5nc34)cc2)n1 | > 100 µM | 50.1 µM | –
54 | CCOP(=O)(OCC)/C(C#N)=C/c1ccc([N+](=O)[O-])cc1 | > 813 µM | 575 µM | –
55 | O=C1NN=C(c2c[nH]c3ccccc23)CC1NCc1ccccc1 (stereo unspecified) | > 200 µM | > 200 µM | –
56 | C[C@@H](NC(=O)CNC(=O)OC(C)(C)C)C(=O)N[C@@H](Cc1ccccc1)C(=O)OCc1ccccc1 (HELM PEPTIDE1{[CC(C)(C)OC(=O)[*:2]].G.[dA].F.[c1ccc(CO[*:1])cc1]}$$$$V2.0) | > 200 µM | 97.7 µM | –
57 | COc1c2occc2c(N)c2ccc(=O)oc12 | > 95.5 µM | > 95.5 µM | –
58 | C=C1CC(c2ccc(O)c(OC)c2)Oc2c(OC)cccc21 (stereo unspecified) | > 316 µM | 32.4 µM | –
59 | COC1CC(N)C(O)C(CN=[N+]=[N-])O1 (stereo unspecified) | – | – | inactive
60 | CCOC(=O)c1sc(SC)nc1NC(=O)c1ccc(OC)cc1 | > 200 µM | > 200 µM | –
61 | NC(=O)c1cc(NC(=O)c2ccc(C(=O)Nc3cc(C(N)=O)cc(C4=NCCN4)c3)cc2)cc(C2=NCCN2)c1 | > 100 µM | > 100 µM | –
62 | C[C@@]12C[C@@H](c3ccccc3O1)N1Cc3ccccc3CSC1=N2 | > 200 µM | 49 µM | –
63 | COC12OC3(C4OC41)C(C(=O)O[C@H]3CO[Si](C)(C)C(C)(C)C)C2C(=O)Oc1ccccc1 (stereo partly specified) | > 200 µM | > 200 µM | –
64 | CSc1nnc2nc[nH]n12 | > 200 µM | > 200 µM | –
65 | CN(C)CCSC1=Nc2ccc(Cl)cc2C(c2ccccc2Cl)=NC1 | > 200 µM | 12.3 µM and 47.9 µM | –
